Entries after “also recorded” stand apart in the source; their conditions may differ.
Tested on: experimental autoimmune encephalomyelitis (EAE) mice
Assay: EAE model of MS, disease score, treatment from day of disease onset (score >1)
Assay type: in vivo, C57BL/6 mice
Method: Experimental detail: EAE was induced in female C57BL/6 mice as described in Example 1. On the day of disease onset (score >1, dotted line), mice were started on daily treatment with vehicle only (Veh) or nalmefene (NaIM) at 0.1, 0.03, 0.01, or 0.003 mg/kg by i.p. injection. […]
(§1) Experimental detail: EAE was induced in female C57BL/6 mice as described in Example 1. On the day of disease onset (score >1, dotted line), mice were treated with vehicle only (daily), nalmefene (0.01 mg/kg by i.p. injection daily), the KOR antagonist norBNI (10 mg/kg by i.p. injection weekly), both nalmefene and norBNI, or the MOR antagonist BFNA (10 mg/kg by i.p. injection weekly).
as §1, with “weekly). The peak disease score during the first EAE episode was recorded, and mice were considered recovered if they received a score <0.5 by day 23 post treatment initiation.” for “weekly).”
Experimental detail: EAE was induced in female C57BL/6 mice as described in Example 1.

## COC(=O)/C=C/C(=O)N[C@@H]1CC[C@@]2(O)[C@H]3Cc4ccc(O)c5c4[C@@]2(CCN3CC2CC2)[C@H]1O5 [BFNA]
10 mg/kg i.p. weekly from disease onset
  recovery from paralysis (disease score): does not enable recovery

## CN1CCC[C@@H]1CCO[C@](C)(c1ccccc1)c1ccc(Cl)cc1 [clemastine fumerate]
Nalmefene 0.01 mg/kg i.p. daily, clemastine fumerate 10 mg/kg i.p.
  number of days in recovery (sustained recovery): recovery is not sustained

## Oc1ccc2c3c1O[C@H]1c4[nH]c5c(c4C[C@@]4(O)[C@@H](C2)N(CC2CC2)CC[C@]314)C[C@@]1(O)[C@H]2Cc3ccc(O)c4c3[C@@]1(CCN2CC1CC1)[C@H]5O4 [norBNI]
norBNI 10 mg/kg i.p. weekly with nalmefene 0.01 mg/kg i.p. daily
  effect on nalmefene-mediated recovery from paralysis: abolishes the ability of nalmefene to enable full recovery from paralysis; also recorded: abolishes the ability of nalmefene to enable and sustain recovery from paralysis

Source: US20210023074A1, “TREATMENT OF DEMYELINATING DISEASES” (Victoria Link Ltd., priority 2018, published 2021)
